Assays:
Conditions in all cases: 72 h
[1] = tested on: MV4-11
Outline: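 The IC50 was read from log-logistic dose–response fits. Fifteen myeloid leukaemia lines were exposed for 72 h at 37 °C with 5% CO2 to five tenfold doses from 1 to 10,000 nM in duplicate. ATP luminescence, normalised to vehicle and to a 10 µM positive control, was fitted with four parameters.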

[2] = tested on: KG-1; test: cell viability (% survival relative to DMSO control, bortezomib = 0%); higher = less cytotoxic
Outline: (§1)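 Fifteen myeloid leukaemia cell lines (10 AML, 5 CML) were seeded at a density titrated to the linear growth range. They went into 384-well plates with compounds pre-printed at 1, 10, 100, 1000 or 10000 nM in duplicate. After 72 h at 37 °C with 5% CO2, viability was read by CellTiter-Glo luminescence. Values are percent survival, with vehicle set to 100% and a 10 µM positive control to 0%, averaged over the duplicates.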

[3] = tested on: K-562; test: as above
Outline: as §1

[4] = tested on: LAMA-84; test: as above
Outline: as §1

[5] = tested on: MOLM-13; test: as above
Outline: as §1

[6] = tested on: KU-812; test: as above
Outline: as §1

[7] = tested on: KCL-22; test: as above
Outline: as §1

[8] = tested on: NOMO-1; test: as above
Outline: as §1

[9] = tested on: HEL; test: as above
Outline: as §1

[10] = tested on: SHI-1; test: as above
Outline: as §1

[11] = tested on: Mono-Mac-6; test: as above
Outline: as §1

[12] = tested on: BV-173; test: as above
Outline: as §1

[13] = tested on: HL-60; test: as above
Outline: as §1

[14] = tested on: ML-2; test: as above
Outline: as §1

[15] = tested on: MV4-11; test: as above
Outline: as §1

[16] = tested on: THP-1; test: as above
Outline: as §1

[17] = tested on: HL-60; test: area under dose-response curve (viability, 1 nM-10 uM) (fraction (0-1)); higher = more sensitive
Outline: (§2)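 HL-60 cells in RPMI 1640 with 10% FBS were rescreened against the full library on 384-well plates at five tenfold concentrations, 1–10,000 nM, in duplicate. Each screen was run with DMSO or 100 nM of one of three metabolic inhibitors, for 72 h at 37 °C, 5% CO2. Viability was read by CellTiter-Glo and normalised to DMSO and 10 μM proteasome-inhibitor wells. Where given, area under the curve came from four-parameter log-logistic fits (drc, PharmacoGx).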

[18] = tested on: HL-60; test: cell viability (% survival relative to DMSO control); higher = less cytotoxic
Outline: as §2

Cc1nnc(-c2ccc(N3CCC(Oc4ccccc4C(F)(F)F)CC3)nn2)s1 [MF-438]
Conditions	IC50 (cell viability) [µM]
[1]	9.32

Conditions	area under dose-response curve, co-treatment: AZD3965 100 nM	area under dose-response curve, co-treatment: DMSO vehicle	area under dose-response curve, co-treatment: GSK2194069 100 nM	area under dose-response curve, co-treatment: pictilisib 100 nM	cell viability, 1 nM [%]	cell viability, 10 nM [%]	cell viability, 100 nM [%]	cell viability, 1000 nM [%]	cell viability, 10000 nM [%]
[2]	–	–	–	–	62.5	133	94.3	115	106
[3]	–	–	–	–	97	103	32.4	38.2	38.1
[4]	–	–	–	–	93.4	85.4	88	76.9	92.6
[5]	–	–	–	–	63.7	86.7	33.9	41.3	36.6
[6]	–	–	–	–	93.9	103	83.9	113	97.5
[7]	–	–	–	–	103	99.6	69	61.3	49.5
[8]	–	–	–	–	97.9	99.2	92.8	108	103
[9]	–	–	–	–	102	91.9	106	122	106
[10]	–	–	–	–	98.9	98.2	102	113	80.9
[11]	–	–	–	–	101	100	95.5	99	103
[12]	–	–	–	–	96.1	108	89.4	137	99.4
[13]	–	–	–	–	93.6	92.5	87	127	56.5
[14]	–	–	–	–	96	114	98.6	117	88.3
[15]	–	–	–	–	91	109	91.2	99.2	45.3
[16]	–	–	–	–	97.9	110	96.5	102	98.1
[17]	< 0.0301	< 0.0301	< 0.0301	< 0.0301	–	–	–	–	–

cell viability [%], [18]
Conditions	0.001 µM	0.01 µM	0.1 µM	1 µM	10 µM
co-treatment: AZD3965 100 nM	88.9	99.9	104	101	89.8
co-treatment: DMSO vehicle	101	101.6	102	100	94.9
co-treatment: GSK2194069 100 nM	92.9	104	93.3	101	86.5
co-treatment: pictilisib 100 nM	109	106	100	94.07	98.1

O=C(Cc1cccc(OC(F)(F)F)c1)Nc1ccc(CCCCc2nnc(NC(=O)Cc3ccccn3)s2)nn1 [CB-839]
Conditions	IC50 (cell viability) [µM]
[1]	0.619

Conditions	area under dose-response curve, co-treatment: AZD3965 100 nM	area under dose-response curve, co-treatment: DMSO vehicle	area under dose-response curve, co-treatment: GSK2194069 100 nM	area under dose-response curve, co-treatment: pictilisib 100 nM	cell viability, 1 nM [%]	cell viability, 10 nM [%]	cell viability, 100 nM [%]	cell viability, 1000 nM [%]	cell viability, 10000 nM [%]
[2]	–	–	–	–	98.4	81.7	80.1	43	45.4
[3]	–	–	–	–	145	105	85.3	86	77.7
[4]	–	–	–	–	116	85.8	66.5	66.3	58.4
[5]	–	–	–	–	123	102	116	59.8	73.7
[6]	–	–	–	–	101	81.8	72.2	67.2	66.4
[7]	–	–	–	–	116	90.4	79.5	55.4	43.8
[8]	–	–	–	–	103	91.4	76.5	79.2	68.2
[9]	–	–	–	–	117	85.6	99.3	73.7	64.8
[10]	–	–	–	–	109	103	99.7	74.9	68.4
[11]	–	–	–	–	102	84.5	85	78.3	82
[12]	–	–	–	–	133	82.2	53.7	59.8	18.5
[13]	–	–	–	–	73.4	114	85.6	40.6	50.2
[14]	–	–	–	–	111	89.8	94.3	91.4	89.9
[15]	–	–	–	–	108	86	71.2	48.1	51.2
[16]	–	–	–	–	99.4	96.7	88.9	82.9	83.7
[17]	0.0553	< 0.0301	0.0569	0.0991	–	–	–	–	–

cell viability [%], [18]
Conditions	0.001 µM	0.01 µM	0.1 µM	1 µM	10 µM
co-treatment: AZD3965 100 nM	105	103.64	103	93.2	71.4
co-treatment: DMSO vehicle	97.2	102	97.9	93.6	88.7
co-treatment: GSK2194069 100 nM	103	94.8	97.4	94.1	77.9
co-treatment: pictilisib 100 nM	100.52	87.5	78.3	71.08	54
